Consider 1 compound from patent US10744117B2, “PPARG modulators for the treatment of osteoporosis” (The Scripps Research Institute, priority 2014, dated 2020).

“Also recorded” adds a separate entry of the source.

One assay has as its system PPARG. The assay is described as follows: Cell-based transactivation assay, 3xPPRE-luciferase reporter co-transfected with PPARG in COS-1 cells. As to conditions: PPRE-luciferase. For orientation: A reporter such as luciferase makes a cellular process visible.
Another assay has as its system DIO C57BL/6 mice. Kind of assay: Bone and marrow fat study in diet induced obesity (DIO) C57BL/6 mice on HFD, 4 wks. The assay is classed as in vivo, mouse. As to conditions: 25 mg/kg/d. The protocol: The compound IA-48 (SR10171) acts as an antagonist to PPARy pro-adipocytic activity, and it has been further tested in vivo for its effect on bone. SR10171 was administered to hyperglycemic C57BL/6 mice, 12 wks old males, that were purchased from the Jackson Laboratories (Bar Harbor, Me.). DIO mice: Animals were fed ad libitum for 11 wks high fat diet (HFD) providing 45 kcal % from fat (D12451; Research Diets, New Brunswick, N.J.) to develop diet induced obesity (DIO).
In parallel, a group of sex- and age-matched control (n=5) was fed regular diet (RD) providing 12 kcal % from fat (2016 Teklad Global, Harlan Laboratories, Indianapolis, Ind.). […]
Fat and lean mass were evaluated at the beginning and at the end of experiment using a Minispec mq10 NMR analyzer (Bruker, Billerica, Mass.). Glucose disposal (glucose tolerance test, GTT) was measured after ip injection of 2 g/kg glucose to animals fasted for 4 hrs. Blood glucose was measured using the AlphaTRAK system appropriate for mice (Abbott Laboratories, North Chicago, Ill.). For indirect calorimetry, mice were evaluated in metabolic cages (CLAMS; Columbus Instruments, Columbus, Ohio) for 4 days with a free access to food and water. […] After one day adaptation, oxygen (VO2) consumption, carbon dioxide (VCO2) production, physical activity, and heat production were measured to determine energy expenditure. […]

For another assay, the system named is lean C57BL/6 mice. The assay is described as follows: Bone study in lean C57BL/6 mice on regular diet, 8 weeks. The assay is classed as in vivo, mouse. As to conditions: supplemented RD. The procedure:
In parallel, a group of sex- and age-matched control (n=5) was fed regular diet (RD) providing 12 kcal % from fat (2016 Teklad Global, Harlan Laboratories, Indianapolis, Ind.). […] The animal treatment and care protocols conformed to the NIH Guidelines and were performed under the University of Toledo Health Science Campus Institutional Animal Care and Utilization Committee protocol.
Fat and lean mass were evaluated at the beginning and at the end of experiment using a Minispec mq10 NMR analyzer (Bruker, Billerica, Mass.). Glucose disposal (glucose tolerance test, GTT) was measured after ip injection of 2 g/kg glucose to animals fasted for 4 hrs. Blood glucose was measured using the AlphaTRAK system appropriate for mice (Abbott Laboratories, North Chicago, Ill.). For indirect calorimetry, mice were evaluated in metabolic cages (CLAMS; Columbus Instruments, Columbus, Ohio) for 4 days with a free access to food and water. Mice were housed individually at room temperature (22C) under an alternating 12-h light/dark cycle. After one day adaptation, oxygen (VO2) consumption, carbon dioxide (VCO2) production, physical activity, and heat production were measured to determine energy expenditure. Respiratory exchange ratio was calculated as a ratio of […]. […]

For assay [1], the system named is obese mice fed a high fat diet. The assay is described as follows: Glucose tolerance test in mice on RD or HFD (FIG. 7). The assay is classed as in vivo, mouse. As to conditions: mice fasted, bolus of glucose, plasma glucose over time.

As for `CN(CCOc1ccc(CC2SC(=O)NC2=O)cc1)c1ccccn1` (centres unmarked) [Rosiglitazone, rosiglitazone], in the assay on PPARG, the “activation of the reporter” value is given as “about 5 fold”. Further, the “decrease of trabecular bone mass” value in the assay with DIO C57BL/6 mice turned out to be 70%. The “bone marrow fat content (osmium staining)” value in the assay on DIO C57BL/6 mice (trabecular region of tibia) is on record as “significant fat accumulation in the bone marrow; also recorded: significantly increased fat content in the bone marrow”. Further, the “loss of trabecular bone mass” value in the assay on lean C57BL/6 mice is on record as 30%. For the same compound, in assay [1], the “glucose tolerance / glucose disposal” value is “insulin sensitization effects and improved glucose disposal”.
